Source: US20090226901A1, “Method of evaluating or selecting agents for preventing or improving pigmented spots” (Kao Corporation, priority 2008, published 2009)

How the values were obtained:
SCF (KITLG) gene [1] = test: SCF (KITLG) gene expression in cultured human epidermal keratinocytes, quantitative PCR; type: cell-based; details: cultured epidermal cells
Method: (§1) Human epidermal cells derived from neonatal foreskin were purchased from Kurabo Industries Ltd., and were precultured in a serum-free basal growth medium (EpiLife, product of Kurabo Industries Ltd.) in an atmosphere of 5% (v/v) CO2 at 37° C. The thus-precultured epidermal cells were inoculated into a 6-well culture plate (product of Falcon) (1.0×10^5 cells/well). Twenty-four hours thereafter, the cells were cultured in a growth medium without including BPE (bovine pituitary gland extract) and hEGF (human epidermal growth factor), and 24 hours thereafter, 5-fluorouracil (5-FU, product of Calbiochem), which is a conventionally known p53 activator, was added at a concentration of 1 or 10 μg/mL. After 48-hour treatment, total RNA was extracted by use of TRIzol® Reagent (product of Invitrogen Corporation). Specifically, each well of the culture plate was washed with PBS, and TRIzol® Reagent (1 mL) was added to the well. […]
(§2) The thus-extracted total RNA was subjected to reverse transcription to synthesize cDNA, and the thus-synthesized cDNA was employed for gene expression analysis through quantitative PCR using TaqMan® probe. In the present Example, specifically, expression levels of SCF (KITLG) gene (Assay ID: Hs00241497_m1) and endothelin-1 gene (Assay ID: Hs00174961_m1) were measured. […]

endothelin-1 gene [2] = test: endothelin-1 gene expression in cultured human epidermal keratinocytes, quantitative PCR; type: cell-based; details: cultured epidermal cells
Method: as §1, §2

[3] = tested on: three-dimensional cultured skin model (MEL-300A); test: melanin content of three-dimensional cultured skin model (MEL-300A); type: cell-based, human; details: culturing for 14 days, absorbance at 405 nm, relative to control (100%), FIG. 5
Method: A three-dimensional cultured skin model (MEL-300A) was purchased from Kurabo Industries Ltd. Immediately after the product had been obtained, a tissue cup was transferred into a 6-well culture plate (product of Falcon), and cultured overnight in a long-term maintenance medium (EPI-100-NMM-113, product of Kurabo Industries Ltd.) (1 mL), in an atmosphere of […] at 37° C. Subsequently, pifithrin-α (PFT), which is a conventionally known p53 inhibitor, was added, followed by culturing for 14 days. Culturing was carried out by allowing the tissue cup to stand still on a sterilized stainless steel washer (product of Kurabo Industries Ltd.) and by use of a long-term maintenance medium (5 mL). Medium was exchanged every three days. After culturing, skin tissue was removed from the tissue cup with tweezers, and then washed thrice with PBS, once with 5% (v/v) trichloroacetic acid, and once with a mixture of diethyl ether and ethanol (1:3 by volume). Thereafter, the thus-washed skin tissue was incubated at 50° C. for two hours, to thereby dry the tissue. Subsequently, the tissue was dissolved in 2N aqueous sodium hydroxide solution (2N) (200 μL), followed by centrifugation at 15,000 rpm for 15 minutes. Thereafter, the culture supernatant was recovered, and absorbance was measured at 405 nm, to thereby calculate the melanin content in the tissue.

tyrosinase gene = tyrosinase gene expression in organ-cultured skin tissue of pigmentatio petaloides actinica, RT-PCR; type: cell-based, human; details: 10 μM PFT, 72 hours organ culture, epidermis, relative to control spot sample, FIG. 6
Text: (§3) Through a contract laboratory of Stephens & Associates (Carrollton, Tex.), subjects having spots were recruited. A dermatologist, contractor of the laboratory, collected samples of skin tissue with pigmentatio petaloides actinica from the shoulder (at two sites for each subject) in two subjects at with a biopsy trepan (diameter: 4 mm). Thereafter, the thus-collected skin biopsy samples were immersed in Dulbecco's modified Eagle's medium (DMEM), and transported to the Cincinnati branch of Biological Science Americas Laboratories while being maintained at about 4 to 10° C. […]
(§4) Thereafter, total RNA was extracted by use of RNeasy micro kit (Qiagen), and cDNA was synthesized through a customary method by means of ThermoScript RT-PCR Systems (Invitrogen, Carlsbad, Calif.). Probes specific to tyrosinase mRNA, SCF (KITLG) mRNA, and endothelin-1 mRNA were obtained from TaqMan® Gene Expression Assays (Applied Biosystems) (Assay IDs: Hs00165976_m1, Hs00241497_m1, and Hs00174961_ml), and real-time quantitative RT-PCR was carried out by means of ABI PRISM 7300 sequence detection system (Applied Biosystems). […] The expression level of each gene in the PFT-treated spot sample was calculated relative to that of the gene in a control spot sample (taken as 1).

SCF (KITLG) gene [4] = test: SCF (KITLG) gene expression in organ-cultured skin tissue of pigmentatio petaloides actinica, RT-PCR; type: cell-based, human; details: 10 μM PFT, 72 hours organ culture, epidermis, relative to control spot sample, FIG. 6
Text: as §3, §4

endothelin-1 gene [5] = test: endothelin-1 gene expression in organ-cultured skin tissue of pigmentatio petaloides actinica, RT-PCR; type: cell-based, human; details: 10 μM PFT, 72 hours organ culture, epidermis, relative to control spot sample, FIG. 6
Text: as §3, §4

HCT116 cells = details: HCT116 human colon cancer cell line; Cell, 124, 207-219, 2006; cited from earlier work
[6] = PFT 1 or 10 μM, 24-hours culturing, FIG. 4
[7] = 5-FU 1 or 10 μg/mL, 48-hour treatment, FIG. 3

expression level of tyrosinase gene (tyrosinase gene) | Structure (SMILES) | expression of SCF (KITLG) gene (SCF (KITLG) gene [1]; [6]) | expression of endothelin-1 gene (endothelin-1 gene [2]; [6]) | melanin contents [3] | expression level of SCF (KITLG) gene (SCF (KITLG) gene [4]) | expression of endothelin-1 gene (endothelin-1 gene [5]) | expression of SCF (KITLG) gene (SCF (KITLG) gene [1]; [7]) | expression of endothelin-1 gene (endothelin-1 gene [2]; [7]) | expression level of SCF (KITLG) gene (HCT116 cells)
significantly decreased | Cc1ccc(C(=O)Cn2c3c(sc2=N)CCCC3)cc1 [pifithrin-α] | significantly decreased | significantly decreased | decreased the melanin contents of the three-dimensional cultured skin model in a dose-dependent manner | significantly decreased | tended to be significantly decreased |  |  | 
 | O=c1[nH]cc(F)c(=O)[nH]1 [5-fluorouracil] |  |  |  |  |  | significantly induced | significantly induced | induced
